Results on 28 compounds are retold here after US11746100B2 (GLOBAL BLOOD THERAPEUTICS, INC., priority 2020, dated 2023).

Broadly, the pEC50 is −log10 of the EC50, conventionally taken in molar units.

For the assay, the target named is T1, human ferroportin (Homo sapiens, UniProt Q9NP59).
T1 construct: luciferase reporter (read with the Nano-Glo Luciferase Assay System); expressed in transfected cells; host or cells: CHO cells, stably transfected, expression induced with doxycycline
T1 sequence (Q9NP59 1-571): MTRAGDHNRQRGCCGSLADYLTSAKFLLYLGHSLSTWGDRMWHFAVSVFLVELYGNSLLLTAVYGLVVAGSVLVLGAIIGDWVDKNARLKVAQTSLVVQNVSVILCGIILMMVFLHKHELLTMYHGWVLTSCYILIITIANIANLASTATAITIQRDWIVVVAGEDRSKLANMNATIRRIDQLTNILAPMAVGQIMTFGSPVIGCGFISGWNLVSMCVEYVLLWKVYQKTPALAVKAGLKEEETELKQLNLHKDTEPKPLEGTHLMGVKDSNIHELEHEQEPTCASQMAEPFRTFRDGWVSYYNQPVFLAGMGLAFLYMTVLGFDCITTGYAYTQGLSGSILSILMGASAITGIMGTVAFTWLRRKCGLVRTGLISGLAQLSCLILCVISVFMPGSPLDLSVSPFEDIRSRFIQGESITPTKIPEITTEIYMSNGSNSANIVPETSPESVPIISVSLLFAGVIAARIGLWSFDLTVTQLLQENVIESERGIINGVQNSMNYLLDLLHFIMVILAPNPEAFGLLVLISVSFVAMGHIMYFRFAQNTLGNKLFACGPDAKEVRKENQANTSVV
The assay is described as follows: Biological in-vitro ferroportin internalization assay (luciferase reporter). The class given is cell-based. The note with it: average pEC50; stably-transfected CHO cell line expressing human ferroportin tagged to a luciferase reporter; 6 h incubation with test compound. In a few lines:
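Stably transfected CHO cells expressing luciferase-tagged human ferroportin, plated 24 h with ferric ammonium citrate and induced with doxycycline for 24 h. Compounds incubated 6 h, then luciferase activity measured by Nano-Glo; average pEC50 reported.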
For orientation: A reporter such as luciferase makes a cellular process visible.
Consider `COC[C@@H](O)COc1ccnc(-c2nc3c(c(N(C)CC(=O)NC(C)C)n2)CCC3)c1` [Compound 448, 2-[(2-{4-[(2R)-2-hydroxy-3-methoxypropoxy]pyridin-2-yl}-5H,6H,7H-cyclopenta[d]pyrimidin-4-yl)(methyl)amino]-N-(propan-2-yl)acetamide], for which the pEC50 stood at 7.4.
To `COc1ccc(NC(=O)CN(C)c2nc(-c3cn(C)cn3)nc3c2CCC3)nc1` [Compound 190, N-(5-methoxypyridin-2-yl)-2-{methyl[2-(1-methyl-1H-imidazol-4-yl)-5H,6H,7H-cyclopenta[d]pyrimidin-4-yl]amino}acetamide] belongs 7.8.
Under `CN(c1nc(-c2ccccn2)nc2c1CCC2)[C@@H](COC(C)(C)C)C(=O)NC(C)(C)C` [Compound 120, (2S)-3-(tert-butoxy)-N-tert-butyl-2-{methyl[2-(pyridin-2-yl)-5H,6H,7H-cyclopenta[d]pyrimidin-4-yl]amino}propanamide] stands 7.2; under `CN(Cc1ccccn1)c1nc(-c2ccccn2)nc2c1CCC2` [Compound 73, N-methyl-2-(pyridin-2-yl)-N-[(pyridin-2-yl)methyl]-5H,6H,7H-cyclopenta[d]pyrimidin-4-amine], 6.8.
`COCc1ccnc(-c2nc3c(c(N(C)CC(=O)NC(C)(C)C)n2)CCC3)c1` [Compound 35, N-tert-butyl-2-({2-[4-(methoxymethyl)pyridin-2-yl]-5H,6H,7H-cyclopenta[d]pyrimidin-4-yl}(methyl)amino)acetamide]: the negative-log EC50 (pEC50) is given as 7.
In the case of `CN(C)CCCc1ccnc(-c2nc3c(c(N(C)CC(=O)NC(C)(C)C)n2)CCC3)c1` [Compound 475, N-tert-butyl-2-[(2-{4-[3-(dimethylamino)propyl]pyridin-2-yl}-5H,6H,7H-cyclopenta[d]pyrimidin-4-yl)(methyl)amino]acetamide], the pEC50 is given as 7.6.
Under `COc1ccnc(-c2nc3c(c(N(C)CC(=O)Nc4ccc(=O)n(C)c4)n2)CCC3)c1` [Compound 281, 2-{[2-(4-methoxypyridin-2-yl)-5H,6H,7H-cyclopenta[d]pyrimidin-4-yl](methyl)amino}-N-(1-methyl-6-oxo-1,6-dihydropyridin-3-yl)acetamide] stands 7.3.
Take `CN(Cc1nncn1-c1cccc(F)c1)c1nc(-c2cc(OCCO)ccn2)nc2c1CCC2` [Compound 319]: the pEC50 worked out at 6.4.
Under `CN(CC(=O)NC1CCOC1)c1nc(-c2cc(OCCO)ccn2)nc2c1CCC2` (stereo not shown) [Compound 149, 2-({2-[4-(2-hydroxyethoxy)pyridin-2-yl]-5H,6H,7H-cyclopenta[d]pyrimidin-4-yl}(methyl)amino)-N-(oxolan-3-yl)acetamide] stands 7.2; under `COc1ccnc(-c2nc3c(c(N(C)CC(=O)N[C@@H]4CCC[C@H]4O)n2)CCC3)c1` (relative stereo) [Compound 172, N-[(1R,2R)-2-hydroxycyclopentyl]-2-{[2-(4-methoxypyridin-2-yl)-5H,6H,7H-cyclopenta[d]pyrimidin-4-yl](methyl)amino}acetamide], 7.5; under `CN(CC(=O)N1CCOCC1)c1nc(-c2cc(OCC(C)(C)O)ccn2)nc2c1CCC2` [Compound 399, 2-({2-[4-(2-hydroxy-2-methylpropoxy)pyridin-2-yl]-5H,6H,7H-cyclopenta[d]pyrimidin-4-yl}(methyl)amino)-1-(morpholin-4-yl)ethan-1-oneide], 7.5.
To `COc1ccc(NC(=O)CN(C)c2nc(-c3cc4ccccc4cn3)nc3c2CCC3)cn1` [Compound 227, 2-{[2-(isoquinolin-3-yl)-5H,6H,7H-cyclopenta[d]pyrimidin-4-yl](methyl)amino}-N-(6-methoxypyridin-3-yl)acetamide] belongs 7.2.
In turn, `c1ccc(-c2nc3c(c(N4CCc5ccccc5CC4)n2)CCC3)nc1` [Compound 83, 3-[2-(pyridin-2-yl)-5H,6H,7H-cyclopenta[d]pyrimidin-4-yl]-2,3,4,5-tetrahydro-1H-3-benzazepine] yielded a pEC50 of 6.9.
Compound `Cc1ccnc(-c2cc(N(C)CC(=O)NC(C)(C)C)c3c(n2)CCC3)c1` [Compound 68, N-tert-butyl-2-{methyl[2-(4-methylpyridin-2-yl)-5H,6H,7H-cyclopenta[b]pyridin-4-yl]amino}acetamide] yielded a pEC50 of 7.2.
Consider `COc1ccnc(-c2nc3c(c(N(C)CC(=O)N[C@@H]4CCOC4)n2)CCC3)c1` [Compound 372, 2-{[2-(4-methoxypyridin-2-yl)-5H,6H,7H-cyclopenta[d]pyrimidin-4-yl](methyl)amino}-N-[(3R)-oxolan-3-yl]acetamide], for which the pEC50 is reported as 7.5.
Under `CN(CC(=O)NC1(C(F)(F)F)CC1)c1nc(-c2cc(OC3COC3)ccn2)nc2c1CCC2` [Compound 338, 2-[methyl({2-[4-(oxetan-3-yloxy)pyridin-2-yl]-5H,6H,7H-cyclopenta[d]pyrimidin-4-yl})amino]-N-[1-(trifluoromethyl)cyclopropyl]aceta-mide] stands 7.1; under `C[C@@H](CO)Oc1ccnc(-c2nc3c(c(N(C)CC(=O)NC(C)(C)C)n2)CCC3)c1` [Compound 385, N-tert-butyl-2-{[2-(4-{[(2S)-1-hydroxypropan-2-yl]oxy}pyridin-2-yl)-5H,6H,7H-cyclopenta[d]pyrimidin-4-yl](methyl)amino}acetamide], 8.2.
In turn, `CN(C)CCOc1ccnc(-c2nc3c(c(N(C)CC(=O)NC4(C(F)(F)F)CC4)n2)CCC3)c1` [Compound 418, 2-[(2-{4-[2-(dimethylamino)ethoxy]pyridin-2-yl}-5H,6H,7H-cyclopenta[d]pyrimidin-4-yl)(methyl)amino]-N-[1-(trifluoromethyl)cyclopropyl]acetamide] gave a negative-log EC50 (pEC50) of 7.5.
In turn, `Cc1cccc(NC(=O)CN(C)c2nc(-c3cc(OCCO)ccn3)nc3c2CCC3)c1` [Compound 292, 2-({2-[4-(2-hydroxyethoxy)pyridin-2-yl]-5H,6H,7H-cyclopenta[d]pyrimidin-4-yl}(methyl)amino)-N-(3-methylphenyl)acetamide] showed a pEC50 of 8.1.
Turning to `CN(c1nc(-c2ccccn2)nc2c1CCC2)[C@H](COC(C)(C)C)C(=O)NC(C)(C)C` [Compound 121, (2R)-3-(tert-butoxy)-N-tert-butyl-2-{methyl[2-(pyridin-2-yl)-5H,6H,7H-cyclopenta[d]pyrimidin-4-yl]amino}propanamide], the pEC50 turned out to be 7.9.
Consider `CSCC[C@H](C(=O)NC(C)(C)C)N(C)c1nc(-c2cc(OC(F)F)ccn2)nc2c1CCC2` [Compound 212, (2R)—N-tert-butyl-2-({2-[4-(difluoromethoxy)pyridin-2-yl]-5H,6H,7H-cyclopenta[d]pyrimidin-4-yl}(methyl)amino)-4-(methylsulfanyl)butanamide], for which the negative logarithm of the EC50 (pEC50) amounted to 7.1.
On to `CN(CC(=O)N1CCCCCC1)c1nc(-c2cc(OC3COC3)ccn2)nc2c1CCC2` [Compound 358, 1-(azepan-1-yl)-2-[methyl({2-[4-(oxetan-3-yloxy)pyridin-2-yl]-5H,6H,7H-cyclopenta[d]pyrimidin-4-yl})amino]ethan-1-one], for which the negative-log EC50 (pEC50) amounted to 7.7.
Under `COc1ncc(NC(=O)CN(C)c2nc(-c3cc(OC(C)(C)CO)ccn3)nc3c2CCC3)cn1` [Compound 276, 2-[(2-{4-[(1-hydroxy-2-methylpropan-2-yl)oxy]pyridin-2-yl}-5H,6H,7H-cyclopenta[d]pyrimidin-4-yl)(methyl)amino]-N-(2-methoxypyrimidin-5-yl)acetamide] stands 7.7.
To `COc1ccnc(-c2nc3c(c(N(C)Cc4nc(-c5ccccc5)co4)n2)CCC3)c1` [Compound 380, 2-(4-methoxypyridin-2-yl)-N-methyl-N-[(4-phenyl-1,3-oxazol-2-yl)methyl]-5H,6H,7H-cyclopenta[d]pyrimidin-4-amine] belongs 6.6.
Compound `CCOc1ccnc(-c2nc3c(c(N(C)CC(=O)Nc4cnc(OC)nc4)n2)CCC3)c1` [Compound 259, 2-{[2-(4-ethoxypyridin-2-yl)-5H,6H,7H-cyclopenta[d]pyrimidin-4-yl](methyl)amino}-N-(2-methoxypyrimidin-5-yl)acetamide] came in with a pEC50 of 7.1.
With `CN(CC(=O)NC(C)(C)C)c1nc(-c2cc3scnc3cn2)nc2c1CCC2` [Compound 301, N-tert-butyl-2-[methyl(2-{[1,3]thiazolo[4,5-c]pyridin-6-yl}-5H,6H,7H-cyclopenta[d]pyrimidin-4-yl)amino]acetamide], the negative logarithm of the EC50 (pEC50) turned out to be 6.9.
Under `CN(CC(=O)NC(C)(C)C)c1nc(-c2cc3ccccc3cn2)nc2c1CCC2` [Compound 165, N-tert-butyl-2-{[2-(isoquinolin-3-yl)-5H,6H,7H-cyclopenta[d]pyrimidin-4-yl](methyl)amino}acetamide] stands 7.4; under `CC(C)NC(=O)CN(C)c1nc(-c2cc(OCC(C)(C)O)ccn2)nc2c1CCC2` [Compound 389, 2-({2-[4-(2-hydroxy-2-methylpropoxy)pyridin-2-yl]-5H,6H,7H-cyclopenta[d]pyrimidin-4-yl}(methyl)amino)-N-(propan-2-yl)acetamide], 7.9.
